Measurements reported in patent publication US5070096A, “Quinolinoxy phenylsulphonamides” (Bayer Aktiengesellschaft, priority 1986, dated 1991).

Legend:
mouse ear inflammation = assay: Mouse ear inflammation test; assay type: in vivo
Experimental: (§1) The liberation of leukotriene B4 (LTB4) in polymorphonuclear rat leukocytes (PMN) after addition of substances and calcium ionophore was determined by means of reverse phase HPLC according to Sorgeat, P. et al, Proc. Nat. Acad. Sci. 76, 2148-2152 (1979) as a measure of the lipoxygenase inhibition. The in vivo activity of the compounds was determined using the mouse ear inflammation model according to Young, J. M. et al., J. of Investigative Dermatology 82, 367-371 (1984).

lipoxygenase = assay: Inhibition of lipoxygenase (liberation of leukotriene B4 in polymorphonuclear rat leukocytes, calcium ionophore, HPLC); assay type: cell-based; settings: LTB4 liberation in rat PMN
Experimental: as §1

| Structure (SMILES) | Inhibition of inflammation, % (mouse ear inflammation; 100 mg/kg per os) | Inhibition of inflammation, % (mouse ear inflammation; 2 mg/ear topical) | IC50 value, inhibition of lipoxygenase (lipoxygenase) |
| --- | --- | --- | --- |
| O=S(=O)(Nc1ccc(Oc2cccc3cccnc23)cc1)c1cccc(C(F)(F)F)c1 [Example 44, N-[4-(quinolin-8-yloxy)phenyl]-3-trifluoromethylbenzenesulphonamide] | 38% | – | – |
| Cc1ccnc2c(Oc3ccc(NS(=O)(=O)c4ccc(Cl)cc4)cc3)cccc12 [Example 58, N-[4-(4-methylquinolin-8-yloxy)phenyl]-4-chlorobenzenesulphonamide] | – | 58% | – |
| O=S(=O)(Nc1ccc(Oc2ccc3cccnc3c2)cc1)c1ccc(Cl)cc1 [Example 53, N-[4-(quinolin-7-yloxy)phenyl]-4-chlorobenzenesulphonamide] | – | – | 0.088 µg/mL |
| O=S(=O)(Nc1ccc(OCc2ccc3ccccc3n2)cc1)c1cccc(C(F)(F)F)c1 [Example 74, N-[4-(quinolin-2-yl-methyloxy)phenyl]-3-trifluoromethylbenzenesulphonamide] | – | – | 0.1 µg/mL |
| O=S(=O)(CCCCl)Nc1ccc(OCc2ccc3ccccc3n2)cc1 [Example 76, N-[4-(quinolin-2-yl-methyloxy)phenyl]-3-chloropropanesulphonamide] | 37% | – | 0.046 µg/mL |
| CCCCS(=O)(=O)Nc1ccc(OCc2ccc3ccccc3n2)cc1 [Example 75, N-[4-(quinolin-2-yl-methyloxy)phenyl]butanesulphonamide] | 46% | 39% | 0.057 µg/mL |
| O=S(=O)(Nc1ccc(Oc2ccc3cccnc3c2)cc1)c1ccc(F)cc1 [Example 57, N-[4-(quinolin-7-yloxy)phenyl]-4-fluorobenzenesulphonamide] | – | – | 0.033 µg/mL |
| CCCC(C)S(=O)(=O)Nc1ccc(OCc2ccc3ccccc3n2)cc1 (centres unmarked) [Example 78, N-[4-(quinolin-2-yl-methyloxy)phenyl]-1-methylbutanesulphonamide] | – | 65% | 0.074 µg/mL |
| O=S(=O)(Nc1ccc(Oc2ccc3cccnc3c2)cc1)c1cccc(C(F)(F)F)c1 [Example 54, N-[4-(quinolin-7-yloxy)phenyl]-3-trifluoromethylbenzenesulphonamide] | – | – | 0.17 µg/mL |
| O=S(=O)(Nc1ccc(OCc2ccc3ccccc3n2)cc1)c1ccc(Cl)cc1 [Example 73, N-[4-(quinolin-2-yl-methyloxy)phenyl]-4-chlorobenzenesulphonamide] | – | – | 0.1 µg/mL |
